pKi: −log10 of the molar value. In brackets after ≈: the same amount, converted by molar mass.
Columns and labels:
[1] = test system: Mycobacterium tuberculosis; experiment: Antitubercular activity against Mycobacterium tuberculosis H37Rv incubated for 4 days by Microplate Alamar Blue Assay; assay type: functional; conditions: 96 h, time 4 day
[2] = biological target: 5-hydroxytryptamine receptor 6 (Homo sapiens, UniProt P50406); experiment: Displacement of [3H]-LSD from human 5HT6 receptor expressed in HEK293 cells; assay type: cell-based
[3] = Metabolic stability in human liver microsomes by LC-MS/MS analysis; assay type: ADME, Microsome
[4] = biological target: D(2) dopamine receptor (Homo sapiens, UniProt P14416); experiment: Displacement of [3H]-Raclopride from human D2 receptor (unknown origin) expressed in HEK293 cell membranes; set-up: species or system Cell membrane
[5] = Inhibition of NDH-2 in wild type Mycobacterium smegmatis mc24517 inverted membrane vesicles by NADH oxygen consumption assay; assay type: cell membranes, Mycolicibacterium smegmatis, Membrane vesicle
[6] = biological target: 5-hydroxytryptamine receptor 2A (Homo sapiens, UniProt P28223); experiment: Displacement of [3H]-Ketanserin from human 5HT2A receptor expressed in CHO-K1 cells; assay type: ADME, cell-based
[7] = Inhibition of NDH-2 in Mycobacterium tuberculosis H37Rv inverted membrane vesicles over expressing ndh gene by NADH oxygen consumption assay; assay type: cell membranes, Membrane vesicle
[8] = test system: Mycobacterium tuberculosis; assay type: functional; conditions: 504 h, time 3 weeks, read-out: MIC100
[9] = biological target: 5-hydroxytryptamine receptor 7 (Homo sapiens, UniProt P34969); experiment: Displacement of [3H]-5-CT from human 5HT7 receptor expressed in HEK293 cells; assay type: cell-based
[10] = test system: Mycobacterium tuberculosis H37Rv; experiment: Inhibition of NDH-2 in Mycobacterium tuberculosis H37Rv inverted membrane vesicles over expressing ndh gene assessed as reduction in oxygen consumption at 50 uM by NADH oxygen consumption assay; assay type: cell membranes; conditions: Membrane vesicle
[11] = test system: Mycobacterium tuberculosis; experiment: Antitubercular activity against Mycobacterium tuberculosis H37Rv incubated for 7 days by Microplate Alamar Blue Assay; assay type: functional; conditions: 168 h, time 7 day
[12] = test system: Mycobacterium tuberculosis; assay type: functional; conditions: H37Rv, 240 h, time 10 day
[13] = test system: Mycolicibacterium smegmatis; experiment: Inhibition of NDH-2 in wild type Mycobacterium smegmatis mc24517 inverted membrane vesicles assessed as reduction in oxygen consumption at 50 uM by NADH oxygen consumption assay; assay type: cell membranes; conditions: Membrane vesicle
[14] = test system: HepG2; experiment: Hepatotoxicity in human HepG2 cells at 10 uM incubated for 48 hrs by MTS assay; assay type: toxicity, cell-based; conditions: hepg2, 48 h
[15] = test system: Vero; experiment: Cytotoxicity against African green monkey Vero cells assessed as decrease in cell viability incubated for 72 hrs by resazurin assay; assay type: cell-based; conditions: Chlorocebus sabaeus
[16] = test system: HepG2; experiment: Hepatotoxicity in human HepG2 cells at 50 uM incubated for 48 hrs by MTS assay; assay type: toxicity, cell-based; conditions: hepg2, 48 h

5-hydroxytryptamine receptor 2A, sequence (P28223 whole entry): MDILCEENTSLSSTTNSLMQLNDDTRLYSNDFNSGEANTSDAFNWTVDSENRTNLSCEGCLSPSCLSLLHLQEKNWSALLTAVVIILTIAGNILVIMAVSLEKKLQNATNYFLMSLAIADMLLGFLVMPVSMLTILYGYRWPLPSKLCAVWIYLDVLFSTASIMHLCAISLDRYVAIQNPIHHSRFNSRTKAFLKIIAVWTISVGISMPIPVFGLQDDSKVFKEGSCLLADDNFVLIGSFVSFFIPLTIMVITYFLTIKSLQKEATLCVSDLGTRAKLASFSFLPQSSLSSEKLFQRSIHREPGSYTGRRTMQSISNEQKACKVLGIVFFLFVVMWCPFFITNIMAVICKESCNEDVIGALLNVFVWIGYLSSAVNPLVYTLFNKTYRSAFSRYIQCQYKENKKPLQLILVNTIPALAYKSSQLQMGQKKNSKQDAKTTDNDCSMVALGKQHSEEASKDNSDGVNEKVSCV
5-hydroxytryptamine receptor 6, sequence (P50406 whole entry): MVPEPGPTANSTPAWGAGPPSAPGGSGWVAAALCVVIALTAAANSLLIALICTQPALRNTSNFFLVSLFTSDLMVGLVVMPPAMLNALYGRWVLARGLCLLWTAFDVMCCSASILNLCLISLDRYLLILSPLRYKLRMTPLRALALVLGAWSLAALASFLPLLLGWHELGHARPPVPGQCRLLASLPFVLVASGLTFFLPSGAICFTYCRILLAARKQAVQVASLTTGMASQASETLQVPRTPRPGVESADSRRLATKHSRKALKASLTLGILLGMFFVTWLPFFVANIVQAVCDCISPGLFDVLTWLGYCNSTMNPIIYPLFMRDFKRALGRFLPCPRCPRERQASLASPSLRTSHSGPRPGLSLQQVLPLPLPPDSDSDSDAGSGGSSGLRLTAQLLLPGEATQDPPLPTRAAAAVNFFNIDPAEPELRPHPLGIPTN
5-hydroxytryptamine receptor 7, sequence (P34969 whole entry): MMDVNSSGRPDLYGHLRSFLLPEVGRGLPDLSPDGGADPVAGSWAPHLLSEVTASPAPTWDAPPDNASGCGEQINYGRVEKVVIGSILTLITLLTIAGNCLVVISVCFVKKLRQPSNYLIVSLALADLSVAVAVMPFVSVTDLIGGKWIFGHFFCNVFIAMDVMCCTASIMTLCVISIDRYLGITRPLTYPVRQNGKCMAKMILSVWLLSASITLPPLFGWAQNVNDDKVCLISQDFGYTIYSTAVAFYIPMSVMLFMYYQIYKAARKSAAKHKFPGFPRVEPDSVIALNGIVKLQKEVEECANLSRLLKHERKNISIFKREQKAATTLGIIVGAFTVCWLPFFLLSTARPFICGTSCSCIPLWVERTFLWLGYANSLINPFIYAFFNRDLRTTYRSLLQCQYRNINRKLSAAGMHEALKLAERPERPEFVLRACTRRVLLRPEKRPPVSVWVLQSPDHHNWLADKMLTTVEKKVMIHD
D(2) dopamine receptor, sequence (P14416 whole entry): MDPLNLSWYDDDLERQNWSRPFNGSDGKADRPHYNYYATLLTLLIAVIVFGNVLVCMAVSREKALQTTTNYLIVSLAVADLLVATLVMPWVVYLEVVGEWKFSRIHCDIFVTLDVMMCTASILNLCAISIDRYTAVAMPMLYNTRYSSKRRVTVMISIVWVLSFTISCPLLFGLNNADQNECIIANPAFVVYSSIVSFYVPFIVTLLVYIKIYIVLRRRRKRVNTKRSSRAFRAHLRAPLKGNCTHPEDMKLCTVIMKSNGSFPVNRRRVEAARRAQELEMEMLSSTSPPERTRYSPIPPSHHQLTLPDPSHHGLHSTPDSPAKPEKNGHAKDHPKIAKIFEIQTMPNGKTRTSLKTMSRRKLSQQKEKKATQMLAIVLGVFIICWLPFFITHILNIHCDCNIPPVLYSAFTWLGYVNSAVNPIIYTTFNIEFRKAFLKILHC

CN1CCCCC1CCN1c2ccc(Br)cc2Sc2cc(Br)ccc21.Cl (stereo not drawn)
MIC90 [1]: 3.1 µg/mL
pKi [2]: 6.12
Stabilty [3]: Unstable
pKi [4]: 6.16
IC50 [5]: 4.7 µg/mL
pKi [6]: 5.76
IC50 [7]: 11.2 µg/mL
MIC [8]: 1.5 µg/mL
pKi [9]: 5.67
inhibition [10]: 84.8%
MIC90 [11]: 3.1 µg/mL
MIC90 [12]: 2.96 µg/mL
inhibition [13]: 93.7%
Activity [14]: Toxic
IC50 [15]: 18.3 µg/mL

CN(C)CCCN1c2ccc(Br)cc2Sc2cc(Br)cc(F)c21.Cl
MIC [8]: 5.7 µg/mL
IC50 [15]: 34.7 µg/mL

Cl.Clc1cc(Cl)c2c(c1)Sc1cc(Cl)cc(Cl)c1N2CCCN1CCOCC1
MIC [8]: > 50 µg/mL

NNC(=O)c1ccncc1 [ISONIAZID]
MIC [8]: 0.25 µg/mL (≈ 1.82 µM)
MIC90 [12]: 2.46 µg/mL (≈ 17.9 µM)

CN1CCCCC1CCN1c2ccc(Br)cc2[Se]c2cc(Br)ccc21.Cl (stereo not drawn)
pKi [2]: 6.65
Stabilty [3]: Stable
pKi [4]: 6.44
pKi [6]: 5.75
MIC [8]: 2.35 µg/mL
pKi [9]: 5.63
Activity [14]: Non-Toxic
IC50 [15]: 17.6 µg/mL

Cl.Clc1cc(Cl)c2c(c1)Sc1cc(Cl)cc(Cl)c1N2CCCN1CCCC1
MIC [8]: 1.5 µg/mL
IC50 [15]: 18 µg/mL

CN1CCCCC1CCN1c2ccc(Cl)cc2Sc2cc(Cl)cc(Cl)c21.Cl (stereo not drawn)
MIC [8]: 2.67 µg/mL
IC50 [15]: 19.2 µg/mL

CO[C@H]1/C=C/O[C@@]2(C)Oc3c(C)c(O)c4c(O)c(c(/C=N/N5CCN(C)CC5)c(O)c4c3C2=O)NC(=O)/C(C)=C\C=C\[C@H](C)[C@H](O)[C@@H](C)[C@@H](O)[C@@H](C)[C@H](OC(C)=O)[C@@H]1C [RIFAMPIN]
MIC90 [1]: 0.06 µg/mL (≈ 0.0729 µM)
MIC [8]: 0.01 µg/mL (≈ 0.0122 µM)
MIC90 [11]: 0.06 µg/mL (≈ 0.0729 µM)
MIC90 [12]: > 128 µg/mL

N=c1sc(-c2ccc(F)cc2)nn1CC(=O)N1c2ccc(Br)cc2Sc2cc(Br)ccc21
MIC [8]: > 50 µg/mL

CN(C)CCCN1c2ccccc2Sc2cc(Cl)ccc21.Cl
MIC [8]: 6.59 µg/mL
IC50 [15]: 35.8 µg/mL

Brc1ccc2c(c1)Sc1cc(Br)ccc1N2CCCN1CCCC1.Cl
MIC [8]: 1.45 µg/mL
IC50 [15]: 17.1 µg/mL

CN(C)CCCN1c2ccc(Cl)cc2Sc2cc(Cl)ccc21.Cl
MIC [8]: 2.51 µg/mL
IC50 [15]: 16.7 µg/mL

Brc1ccc2c(c1)Sc1cc(Br)ccc1N2CCCN1CCOCC1.Cl
MIC [8]: 5.52 µg/mL
IC50 [15]: > 50 µg/mL

CC(=O)NC[C@H]1CN(c2ccc(N3CCOCC3)c(F)c2)C(=O)O1 [LINEZOLID]
MIC [8]: 0.87 µg/mL (≈ 2.58 µM)

CN1CCCCC1CCN1c2ccccc2Sc2cc(Cl)ccc21.Cl (stereo not drawn)
MIC [8]: 5.48 µg/mL
inhibition [10]: 12.5%
inhibition [13]: 47.5%
IC50 [15]: 30.7 µg/mL

CN(C)CCCN1c2ccc(Br)cc2Sc2cc(Br)ccc21.Cl
MIC [8]: 2.38 µg/mL
inhibition [10]: 40.7%
inhibition [13]: 69.4%
IC50 [15]: 27 µg/mL

CN1CCCCC1CCN1c2ccc(Cl)cc2Sc2cc(Cl)ccc21.Cl (stereo not drawn)
IC50 [5]: 6.5 µg/mL
MIC [8]: 2.4 µg/mL
inhibition [10]: 59.3%
inhibition [13]: 85.4%
IC50 [15]: 17.9 µg/mL

CN1CCCCC1CCN1c2c(Cl)cc(Cl)cc2Sc2cc(Cl)cc(Cl)c21.Cl (stereo not drawn)
MIC90 [1]: 3.1 µg/mL
pKi [2]: 6.41
pKi [4]: 6.19
IC50 [5]: 3.6 µg/mL
Activity [16]: Non-Toxic
pKi [6]: 5.91
IC50 [7]: 4.5 µg/mL
MIC [8]: 1.55 µg/mL
pKi [9]: 6.00
inhibition [10]: 74.2%
MIC90 [11]: 3.1 µg/mL
MIC90 [12]: 2.89 µg/mL
inhibition [13]: 92.4%
IC50 [15]: 26.9 µg/mL

CCCCCCCc1cc(O)c2ccccc2[n+]1[O-]
inhibition [10]: 29.2%
inhibition [13]: 18.1%

CSc1ccc2c(c1)N(CCC1CCCCN1C)c1ccccc1S2 (stereo not drawn) [THIORIDAZINE]
pKi [2]: 7.15
MIC [8]: 2.4 µg/mL (≈ 6.48 µM)
pKi [9]: 6.74
MIC90 [12]: 5.29 µg/mL (≈ 14.3 µM)
IC50 [15]: 17.8 µg/mL (≈ 48 µM)

CN(C)CCCN1c2ccccc2Sc2ccc(Cl)cc21 [CHLORPROMAZINE]
MIC [8]: 4.41 µg/mL (≈ 13.8 µM)
MIC90 [12]: 0.08 µg/mL (≈ 0.251 µM)
IC50 [15]: 26.5 µg/mL (≈ 83.2 µM)

Brc1ccc2c(c1)Sc1cc(Br)ccc1N2Cc1ccccn1.Cl
MIC [8]: > 100 µg/mL
IC50 [15]: > 100 µg/mL

CN1CCCCC1CCN1c2ccc(Br)cc2Sc2cc(Br)cc(F)c21.Cl (stereo not drawn)
MIC [8]: 2.65 µg/mL
IC50 [15]: 17.7 µg/mL

Brc1ccc2c(c1)Sc1cc(Br)ccc1N2CCN1CCCC1
MIC [8]: 2.57 µg/mL (≈ 5.66 µM)
IC50 [15]: 9.42 µg/mL (≈ 20.7 µM)

CN(C)CCCN1c2ccc(Cl)cc2Sc2cc(Cl)cc(Cl)c21.Cl
MIC [8]: 4.46 µg/mL
IC50 [15]: 16.8 µg/mL

Brc1ccc2c(c1)Sc1cc(Br)ccc1N2CCN1CCOCC1.Cl
MIC [8]: > 100 µg/mL
IC50 [15]: > 100 µg/mL
